Measured values from patent US11040052B2, “Methods and pharmaceutical compositions for modulating autophagy in a subject in need thereof” (INSERM (INSTITUT NATIONAL DE LA SANTE ET DE LA RECHERCHE …, priority 2013, dated 2021).
“Also recorded” adds a separate entry of the source.

Columns and labels:
[1] = test system: starvation-induced autophagy in mice tissues; assay: Starved mice: tissue AcCoA, protein acetylation and starvation-induced autophagy; assay type: in vivo
Experimental: C57BL/6 mice (Charles River Laboratory, […], France) were bred and maintained according to both the FELASA and the Animal Experimental Ethics Committee Guidelines (Val de Marne, France). Mice were housed in a temperature-controlled environment with 12 h light/dark cycles and received food and water ad libitum. For HC-related experiments, mice were injected intraperitoneally with a single 100 mg/kg dose and 6 h later were sacrificed and tissues were immediately frozen in liquid nitrogen. […] Tissue extracts were then centrifuged at 12,000 g at 4° C. and supernatants were collected. Protein concentration in the supernatants was evaluated by the bicinchoninic acid technique (BCA protein assay kit, Pierce Biotechnology, Rockford, Ill.). For hydroxycitrate-related weight-loss experiments, autophagy-deficient Atg4b^-/- mice were used. Atg4b^-/- mice have been previously described (Mariño et al., 2010). For HC-, spermidine-, and resveratrol-related experiments (tumour growth) mice were intraperitoneally injected with respectively 100 mg/kg, 50 mg/kg and 100 mg/kg doses at day 8 and day 9. At day 9, mice were intraperitoneally injected with 2 mg/kg single dose of Mitoxanthrone. For starvation related experiment (tumour growth) mice were treated as previously described (Fabrizio et. al., 2010). To avoid post-mortem autophagy induction, dead mice were immediately perfused with 4% paraformaldehyde (w:v in PBS, pH 7.4). Tissues were then harvested and further fixed with the same solution for at least 4 h, followed by treatment with 15% sucrose (w:v in PBS) for 4 h and with 30% sucrose (w:v in PBS) overnight. Tissue samples were embedded in Tissue-Tek OCT compound (Sakura Finetechnical Co. Ltd., Tokyo, Japan) and stored at -70° C. […] In each organ, the number of GFP-LC3 dots was counted in five independent visual fields from at least five mice using a TCS SP2 confocal fluorescence microscope (Leica Microsystems GmbH). […]

[2] = test system: CT26 derived tumors expressing pmeLUC; assay: Real time in vivo imaging of ATP release; design: species or system mice; details: autophagy competent tumors, 48 hours post chemotherapy
Experimental: BALB/c mice were subcutaneously inoculated with 3×10^5 SCR or ATG5^KD CT26 clones stably expressing pmeLUC probe, and tumor growth was monitored every 2 days. When tumor became palpable (about 8 days after injection), mice were divided in four experimental groups. The first one was intraperitoneally injected with 200 µl PBS and after 48 hs from the first injection, 200 µl of PBS was injected again (control group). The second one was injected the first time with 100 mg/kg hydroxycitrate in 200 µl of PBS and 48 hs later again 100 mg/kg hydroxycitrate in 200 µl of PBS. The third one was intraperitoneally injected with 100 mg/kg hydroxycitrate in 200 µl of PBS and 48 hs later with 100 mg/kg hydroxycitrate in 200 µl of PBS and 5.17 mg/Kg MTX in 200 µl di PBS. The last group were injected the first time with 200 µl of PBS and 48 hs later with 5.17 mg/Kg MTX in 200 µl di PBS. Thereafter, mice were anesthetized and imaged with Xenogen—IVIS® Lumina II (Caliper, Hopkinton, Mass., USA). D-luciferin (150 mg/kg) was intraperitoneally administered to mice 15 minutes before acquisitions, which were performed immediately before and after 48 hrs from compound injections. The regions of interest were identified around tumor sites and in vivo luminescence was identified as photons/s using the Living ImageH software (Caliper).

[3] = test system: MPA/DMBA induced mammary tumors; assay: MPA/DMBA induced mammary tumor; assay type: in vivo, mice
Experimental: Six-week-old female Balb/c mice underwent surgical implantation of slow-release MPA (Medroxyprogesterone Acetate) pellets (50 mg, 90-day release; Innovative Research of America) subcutaneously on the right flank. 200 uL of 5 mg/mL DMBA (Dimethylbenzantracene)
(Sigma Aldrich) dissolved in Corn Oil was administered by oral gavage six times during 8 weeks. Tumor formation was monitored by palpation. When tumors became palpable, mice were assigned to following groups of treatment: PBS, HCA, MTX, MTX plus HCA and the MTX plus HCA upon CD4/CD8 lymphocytes depletion. Combinatorial groups were treated as previously described, whereas for CD4/CD8 depletion, mice were intraperitoneally administrated with 500 μg of anti CD4 and CD8 antibodies the day before the onset of the treatment.

[4] = test system: CD4+CD25+Foxp3+ Tregs in tumor bed; assay: Detection of tumor-infiltrated Tregs (flow cytometry); assay type: in vivo, mice; details: compared with MTX group
Experimental: Tumors were digested using Miltenyi Biotec tumor digestion kit according to manufacturer's protocol. Single cells were resuspended in RPMI 1640 and sequentially passed through 100 μm and 70 μM nylon cell strainers (BD Biosciences). Leukocytes were purified using Miltenyi Biotec magnetic beads conjugated to monoclonal anti-mouse CD45 (clone 30F11.1) according to the supplier's recommendations. Prior to staining of TIL populations for flow cytometry analysis, samples were incubated with LIVE/DEAD® Fixable Yellow Dead Cell dyes (Invitrogen) to discriminate viable cells from damaged cells. TILs were incubated with antibodies against CD16/CD32 before staining with fluorescent-labeled antibodies targeting T-cell surface markers. Then, cells were permeabilized and fixed with eBioscience Foxp3/Transcription Factor Staining Buffer Set and stained for intracellular Foxp3. Data were acquired using a MACSQuant flow cytometer (Miltenyi Biotec) and analyzed with FlowJo v. X PC software (Treestar, Oreg., USA). Tregs were defined as CD3+ CD4+ CD8− CD25+ Foxp3+ T-cell population.

SMILES | AcCoA levels in mice tissues after 24 h starvation ([1]; intraperitoneal injection, starved mice, vs vehicle) | cytoplasmic protein acetylation in tissues of starved mice ([1]; parenteral administration) | starvation-induced autophagy in vivo ([1]; starved mice, LC3 lipidation and GFP-LC3 in heart and muscle) | extracellular ATP release in vivo, combined with MTX [2] | survival, combined with MTX ([3]; Kaplan-Meier) | mammary tumor growth and survival, combined with MTX, T cell depleted ([3]; depletion of CD4 and CD8 T lymphocytes) | mammary tumor growth, combined with MTX ([3]; mice capable of T-cell dependent immune response) | mammary tumor growth, monotherapy ([3]; mouse, in vivo) | Foxp3+ Tregs in tumor bed, combined with MTX [4]
COC(=O)CCC(=O)C(=O)OC [DMKG, dimethyl-α-ketoglutarate] | increased cardiac AcCoA levels; also recorded: avoided the depletion of AcCoA | avoided the depletion of AcCoA, the deacetylation of cytosolic proteins; also recorded: avoided the depletion of AcCoA and the deacetylation of cytoplasmic proteins | inhibited starvation-induced autophagy in vivo; also recorded: efficiently reduced autophagy in vivo |  |  |  |  |  | 
O=C(O)CC(O)(C(=O)O)C(O)C(=O)O (stereo not drawn) [HC, hydroxycitrate] |  |  |  | significantly enhances ATP release; also recorded: higher level of extracellular ATP accumulation | significantly increased survival | Beneficial effect of combinatorial treatment is lost | significantly diminish tumor growth; also recorded: unless they were combined | had little effect | reduces Treg infiltration in tumor bed; also recorded: particularly efficient in reducing the frequency of Foxp3^+ Tregs in tumors
